Assay results from patent publication US11029285B2, “Real-time and quantitative measurement method for cell traction force” (HUNAN AGRICULTURAL UNIVERSITY, priority 2016, dated 2021).

Assays:
Type in all cases: cell-based
[1] = tested on: H9C2 rat cardiomyocytes; assay: Double resonator QCM (AT-cut/BT-cut) cell traction force of H9C2 rat cardiomyocytes under inotropic drugs; conditions: 20,000 H9C2 cells on bare gold
Experimental: (§1) The steps for measuring the cell traction force by using bare gold electrode AT-cut and BT-cut quartz crystals are as follows:
1) dripping 1 drop of Piranha solution (80° C. 1:3 (v:v) 30% H2O2:H2SO4) to the center of each quartz crystal gold electrode for about 30 s, then rinsing with distilled water, drying with nitrogen, and repeating this step by 3 times;
2) assembling the crystals in a Teflon well cell;
3) cleaning the Teflon cell twice with distilled water, then adding about 300 μL of sterilized water, and putting into a 5% CO2 incubator at 37° C.;
(§2) 4) checking to make sure that the 8-channel QCM instrument QCA922 has crystal resonant frequency and dynamic resistance outputs, connecting detection cells in turn, determining that each detection cell (e.g., two AT-cut crystal detection cells, two BT-cut crystal detection cells) works, and starting the software to acquire data; 5) removing the sterilized water after the data corresponding to each channel is stable, cleaning twice with sterilized water, then cleaning with PBS, add 52 μL of DMEM medium containing fetal bovine serum, and acquiring QCM resonant frequency (f) and dynamic resistance (R) data for 2 h; adding 250 μL of medium containing a certain number (e.g., 20,000) of H9C2 rat cardiomyocytes or human umbilical vein endothelial cells (HUVECs), continuously acquiring f and R data for about 20 h. The QCM relative frequency shift Δf and dynamic resistance change ΔR of each channel caused by the adhesion of cells at different adhesion time are determined by subtracting the corresponding QCM stable values in media of the channel at the time (t). 6) After the experiment, collecting the medium, gently washing with PBS, adding trypsin for digestion, and counting the cells in the collected fraction with a cytometer; 7) Quantitatively measuring the dynamic change ΔS in the cell traction force during the cell adhesion process according to the frequency shifts Δft^AT and Δft^BT of the paired AT-cut and BT-cut quartz crystals at the time t: ΔSt=(KAT−KBT)^−1[tq^ATΔft^AT/fr^AT−tq^BTΔft^BT/fr^BT] (1),
(§3) in which, ΔSt is the traction force of cells at the adhesion time t; KAT=2.75×10^−12 cm^2 dyn^−1 and KBT=−2.65×10^−12 cm^2dyn^−1 are stress coefficients of the AT-cut and BT-cut quartz crystals of given crystal orientations, respectively, and are constants. fr^AT and fr^BT are the resonant frequencies of the AT-cut and BT-cut quartz crystals, respectively; tq^AT and tq^BT are the thicknesses of the AT-cut and BT-cut quartz crystals, respectively, and are constants. Therefore, the surface stress or traction force applied to the crystal by cells in the adhesion process or under the action of a drug can be quantitatively measured according to the frequency shifts Δft^AT, Δft^BT (in Hz) of the AT-cut crystal, the BT-cut crystal at any time t relative to its reference point (e.g., a stabile value in the medium or a stabile value before dosing) based on formula (1). The frequency of the quartz crystal is a digital signal, which can be easily, quickly and continuously acquired or measured by a frequency counting device or a QCM special instrument. The crystal frequency used in the experiment of the present disclosure is 9 MHz, where tq^AT=0.0185 cm, and tq^BT=0.0282 cm. Thus, formula (1) can be simplified as: ΔSt=2.058×10^4(0.0185Δft^AT−0.0282Δft^BT) (2)
Experimental Steps for Effects of Cardiovascular Stimulating Drug Isoprenaline (ISO) and Inhibitory Drug Verapamil (VRP) on Traction Force of H9C2 Rat Cardiomyocytes
Take four Teflon well cells, two identical 9 MHz AT-cut gold electrode crystals and two identical 9 MHz BT-cut gold electrode crystals. […]

[2] = tested on: human umbilical vein endothelial cells; assay: Double resonator QCM cell traction force of HUVECs on KRGD or fibronectin modified crystals under blebbistatin or nocodazole; conditions: 20,000 HUVECs
Experimental: (§4) The Steps for Measuring the Cell Traction Force with AT-Cut and BT-Cut Quartz Crystals Modified with Specific Cell Adhesion Molecules RGD and Fibronectin are as Follows:
(§5) 1) cleaning with anhydrous ethanol and Millipore water, and blowing AT-cut and BT-cut 9 MHz crystals with nitrogen;
2) dripping 1 drop of Piranha solution (80° C. 1:3 (v:v) 30% H2O2:H2SO4) to the quartz crystal gold electrode for treating 30 s, rinsing with Millipore water and anhydrous ethanol, blowing with nitrogen, and repeating 3 times. […] Adding 20,000 HUVEC or H9C2 cells, and starting QCM for monitoring; 8) collecting the medium after the experiment, gently wash with PBS, adding trypsin for digestion, and measuring the cells in the collected fraction with a cytometer; and 9) Quantitatively estimating the dynamic change ΔS in the cell traction force during the cell adhesion process according to the frequency shifts Δft^AT and Δft^BT of the AT-cut and BT-cut quartz crystals modified with the same concentration of RGD or fibronectin at the time t based on formula (2). […]

[3] = tested on: human umbilical vein endothelial cells; assay: Double resonator QCM cell traction force of HUVECs on bare gold electrodes under thrombin or Y-27632; conditions: 20,000 HUVECs on bare gold
From the text: as §1, §2, §3
Experimental Steps for Effects for Vascular Endothelial Barrier Function Destruction Drug Thrombin and Protective Drug Y-27632 on Traction Force of Human Umbilical Vein Endothelial Cells
Take four Teflon well cells, two identical 9 MHz AT-cut gold electrode crystals and two identical 9 MHz BT-cut gold electrode crystals. Based on the aforementioned steps of measuring the cell traction force with bare gold electrode AT-cut and BT-cut quartz crystals, add 300 μL DMEM medium to the four Teflon cells respectively, and collect data for about 2 h; add 300 μL of mediums containing 20,000 human umbilical vein endothelial cells respectively, collect data for about 24 h, then add the drugs thrombin and Y-27632 to the final concentrations, and continue to collect data for about 24 h.

[4] = tested on: human umbilical vein endothelial cells; assay: QCM response and cell traction force during adhesion of HUVECs to fibronectin modified gold electrodes
Experimental: as §4, §5
2) dripping 1 drop of Piranha solution (80° C. 1:3 (v:v) 30% H2O2:H2SO4) to the quartz crystal gold electrode for treating 30 s, rinsing with Millipore water and anhydrous ethanol, blowing with nitrogen, and repeating 3 times. Dripping the anhydrous ethanol onto the electrode to stand for a few minutes, rinsing with sterile water, and blowing with nitrogen; 3) installing the surface treated AT-cut and BT-cut quartz crystals into Teflon well cells; 4) adding a mixed anhydrous ethanol solution of 20 mM 3-mercaptopropionic acid and 1 mM triethylene glycol mono-11-mercaptoundecyl ether to the Teflon cell at room temperature, and standing overnight in the dark; 5) taking out the solution, and rinsing with sterile water; adding a PBS buffer solution (pH=5.5) with 150 mM EDC and 30 mM NHS dissolved therein, and standing for about 30 min; 6) taking out the solution, and rinsing with PBS buffer solution (pH=5.5) and sterile water; adding a PBS solution of KRGD or fibronectin of different concentrations, and standing for 1-2 h (RGDK) or overnight (fibronectin); 7) taking out the solution, and rinsing with sterilized PBS and sterile water to obtain KRGD or fibronectin modified gold electrodes. Adding 20,000 HUVEC or H9C2 cells, and starting QCM for monitoring; 8) collecting the medium after the experiment, gently wash with PBS, adding trypsin for digestion, and measuring the cells in the collected fraction with a cytometer; and 9) Quantitatively estimating the dynamic change ΔS in the cell traction force during the cell adhesion process according to the frequency shifts Δft^AT and Δft^BT of the AT-cut and BT-cut quartz crystals modified with the same concentration of RGD or fibronectin at the time t based on formula (2).
However, as the adhesion time increases, the surface of the electrode may adsorb adherent factors beneficial to cell adhesion and extracellular matrix factors secreted by the cells, so that ΔS changes positively, and the cells are gradually spread and are finally close to the value of the cell traction force on the gold electrode modified at the low FN concentration (10 μg/mL).

[5] = tested on: human umbilical vein endothelial cells; assay: Double resonator QCM cell traction force of 50,000 HUVECs on bare gold electrodes under EGTA
From the text: as §1, §2
as §3, with “The crystal frequency used in the experiment of the present disclosure is 9 MHz, where tq^AT=0.0185 cm, and tq^BT=0.0282 cm. Thus, formula (1) can be simplified as: ΔSt=2.058×10^4(0.0185Δft^AT−0.0282Δft^BT) (2)” left out

[6] = tested on: human umbilical vein endothelial cells; assay: Cell morphology simulation experiments under EGTA; conditions: after the EGTA treatments for five minutes
[7] = electrode modified at 30 μg/mL, 40 μg/mL FN

COc1ccc(CCN(C)CCCC(C#N)(c2ccc(OC)c(OC)c2)C(C)C)cc1OC (stereo not shown) [VRP, verapamil]
QCM frequency f of AT-cut and BT-cut crystals ([1]; VRP final concentration 25 nM): increased | cell traction force ΔS ([1]; VRP final concentration 25 nM): increases and changes positively | dynamic resistance R of AT-cut and BT-cut crystals ([1]; VRP final concentration 25 nM): decreased

CC(C)NCC(O)c1ccc(O)c(O)c1 (stereo not shown) [ISO, isoprenaline]
QCM frequency f of AT-cut and BT-cut crystals ([1]; ISO final concentration 125 nM): decreased | cell traction force ΔS ([1]; ISO final concentration 125 nM): decreases and changes negatively | dynamic resistance R of AT-cut and BT-cut crystals ([1]; ISO final concentration 125 nM): increased

COC(=O)Nc1nc2ccc(C(=O)c3cccs3)cc2[nH]1 [nocodazole]
cell traction force ΔS ([2]; crystals modified at 20 μg/mL fibronectin, 0.5 μM nocodazole): increases at the beginning and then decreases

thrombin
cell traction force ([3]; 0.1 unit/mL thrombin): increases | dynamic resistance ([3]; 0.1 unit/mL thrombin): increases slightly | frequency shift of the crystals ([3]; 0.1 unit/mL thrombin): decreases

C[C@@H](N)[C@H]1CC[C@H](C(=O)Nc2ccncc2)CC1 [Y-27632]
cell traction force ([3]; 0.5 μM Y-27632): decreases | dynamic resistance ([3]; 0.5 μM Y-27632): decreases | frequency shift of the crystals ([3]; 0.5 μM Y-27632): decreases

fibronectin [FN]
cell traction force ΔS (sign) ([4]; 20,000 HUVECs, gold electrode modified with FN, DMEM with 2% fetal bovine serum): positive | cell traction force, compared among FN concentrations ([4]; electrode modified at 10 μg/mL FN): close and the least | ΔS, compared among FN concentrations ([4]; electrode modified at 20 μg/mL FN, tested 0, 10, 20, 30, 40, 50 μg/mL): maximum and stable | QCM frequency shift and dynamic resistance change responses, compared among FN concentrations [4, 7]: medium | ΔS response over time [4, 7]: increases fastest at the beginning, but fluctuates with time and attenuates to some extent | cell traction force, compared among FN concentrations ([4]; electrode modified at 50 μg/mL FN): close and the least

Cc1ccc2c(c1)C(=O)C1(O)CCN(c3ccccc3)C1=N2 (stereo not shown) [blebbistatin]
cell traction force ΔS ([2]; crystals modified at 50 μg/mL KRGD, 1.22 μM blebbistatin): decreases

O=C(O)CN(CCOCCOCCN(CC(=O)O)CC(=O)O)CC(=O)O [EGTA]
cell traction force in the initial phase ([5]; 1 mM EGTA): did not decrease but increase slightly | cell generated force with the increase of EGTA time ([5]; 10 mM EGTA): decreases | cell generated force with the increase of EGTA time ([5]; 50 mM EGTA, compared with 10 mM): decreases more quickly | overall cell traction force ([5]; after different concentrations of EGTA (1, 10, 50 mM) are added): shows a tendency to decrease | cell spreading area [6]: became smaller
